# Data published in publication PMC3664642, “A Peptide against Soluble Guanylyl Cyclase α1: A New Approach to Treating Prostate Cancer” (PLoS ONE, 2013).
# Entries after “also recorded” stand apart in the source; their conditions may differ. Where no end group is shown, it is not given here.
# Experiments:
# sGCα1-sGCβ1 = sGCα1-sGCβ1 co-immunoprecipitation, LNCaP extracts; assay type: binding; conditions: LNCaP whole-cell extracts; Fig. S1A
# Procedure: Immunoprecipitation (IP) in LNCaP cells was performed as described previously. Whole-cell extracts from LNCaP cells were subjected to IP using Protein A/G plus Agarose (Santa Cruz). IP antibodies were against sGCα1 (Cayman Chemical), sGCβ1 (Cayman Chemical), or rabbit IgG (Santa Cruz) as control. For Biotin pulldown, 5 µg Biotin-labeled Peptide A was incubated with NeutrAvidin Agarose Resin (Thermo Scientific) for 3 hours at 4°C, after which whole-cell extract from LNCaP cells was added and incubated overnight at 4°C. Resin was washed and eluted with SDS Sample buffer, followed by SDS-PAGE gel electrophoresis.
# (A) Whole-cell extracts from LNCaP cells treated with Vehicle, Peptide A-8R, or C-8R were subjected to IP using an anti-sGCα1 or anti-sGCβ1 antibody and then probed by Western blotting for sGCα1 (Upper) or sGCβ1 (Lower). Input represents amount of sGCα1 or sGCβ1 found in extracts. (B) LNCaP cells grown in the absence or presence of 1 nM R1881 were treated with Vehicle, 20 µM Peptide A-8R, 20 µM C-8R, or 8-Br-cGMP and monitored for cGMP levels using the cGMP E1A kit (Enzo Life Sciences). (C) LNCaP cells grown in the absence or presence of 8-Br-cGMP were treated with Vehicle, Peptide A-8R, or ODQ and monitored for cell density using the MTT assay. (D) LNCaP cells were treated with Vehicle or different concentrations of Peptide A-8R and C-PTIO and monitored for cell density. […]
# AKT = test: Western blot of AKT in cells; assay type: cell-based; conditions: LNCaP, 25 µM, Fig. S4A
# Procedure: Western blotting was performed as described using primary antibodies against sGCα1 (Cayman Chemical), pan-Akt (Cell Signaling Technology), phospho-AKT (S473, T308) (Cell Signaling Technology), phospho-PDK1 (Cell Signaling Technology), phospho-GSK-3β (Cell Signaling Technology), PARP (Cell Signaling Technology), and β-Actin (Abcam).
# Supplementary file pone.0064189.s004.tif: Figure S4 Peptide A-mediated down-regulation of AKT is not involved in its cytotoxicity to prostate cancer cells. Western blotting was used to measure the levels of total AKT or Ser-473-phosphorylated AKT in (A) LNCaP cells treated with Vehicle, Peptide A-8R, or Peptide C-8R (25 µM) for different times, as shown, (B) mouse xenograft tumors treated with Vehicle or Peptide A-8R, or (C) LNCaP cells infected with Empty or AKT-expressing adenovirus and treated with Peptide A-8R at different concentration, as shown, for 30 min. Note that β-actin was used to control for protein loading. (D) LNCaP cells, infected with Empty or AKT-expressing adenovirus, were grown in 10% serum under different concentrations of Peptide A-8R, as shown. Cell number was measured after 0–6 days of incubation. Data points represent averages of three independent experiments plus standard deviations. (TIF) Click here for additional data file.
# Cos cells = test: Proliferation/cytotoxicity, sGCα1-deficient Cos cells (MTT); assay type: cell-based, African green monkey; conditions: different concentrations, Fig. 3E
# Procedure: LNCaP, C81, PC-3 and Cos cells were grown as previously described. CWR-22Rv1 cells were cultured in RMPI-1640 medium with 10% FBS and 50 µg/ml Gentamicin (Gibco). Control siRNA, sGCα1 siRNA and AKT siRNA (Dharmacon) at 50 nM final concentration was transfected into cells using Lipofectamine siMAX (Invitrogen).
# For proliferation, cells were grown in medium containing 2% FBS extracted with dextran-coated charcoal (DCC). 48 hours later, ethanol or 1 nM R1881 was added to the cells followed by peptide treatment. The MTT assay (Sigma) was used as before to determine cell number. For apoptosis, 5000 cells were seeded in 96-well plates and treated with Vehicle (DMSO), Peptide A-8R (25 µM), Etoposide (50 µM) (Sigma) at different time points. The Caspase (3/7) activity was measured using Apo-ONE Homogeneous Caspase-3/7 assay kit (Promega). PARP cleavage was also used to measure apoptosis, and is described below.
# Vehicle or different concentrations of Peptide A-8R or C-8R, as shown, was added to (A) hormone-dependent LNCaP cells grown in 2% serum without or with 1 nM R1881, (C) castration-resistant C81 or CWR-22Rv1 cells, or (E) sGCα1-deficient PC-3 or Cos cells. Cell number was measured after various days of incubation. Data points represent averages of three independent experiments plus standard deviations. […]
# C81 cells = test: DAPI DNA staining, C81 cells; assay type: cell-based; conditions: 50 µM Peptide A-8R, 1 hr, with or without 5 mM NAC, Fig. S6
# Procedure: C81 cells were first treated with or without 5 mM NAC for 2 hrs and then Vehicle or different concentrations of Peptide A-8R, as shown, for 1 hr and stained with DAPI. Phase contrast images are shown. (TIF) Click here for additional data file.
substance,measurement,setting,value
Ac-TFCKAFPFHIIRRRRRRRR [Peptide A-8R],effect on sGCα1-sGCβ1 co-IP (heterodimerization),sGCα1-sGCβ1,had no effect on either sGCα1 co-IP with sGCβ1 or sGCβ1 co-IP with sGCα1; also recorded: does not interfere with sGCα1-sGCβ1 dimerization
same,effect on phosphorylated AKT level,AKT; Ser-473,similarly affected
same,effect on total AKT protein level,"AKT; time course, 50 min","strong, time-dependent negative effect on the AKT protein, such that by 50 min most of the measurable AKT is gone; also recorded: significantly reduces AKT protein levels"
same,effect on Cos cells,Cos cells,little to no effect
same,DAPI staining / effect on nuclei and DNA,C81 cells,kills the cells and disrupts their nuclei and DNA such that DAPI staining yields no signal
